Measured values: US10106542B2, “Substituted 6,7-dihydropyrazolo[1,5-a]pyrazines as negative allosteric modulators of mGluR2 receptors” (Janssen Pharmaceutica NV, priority 2013, dated 2018)

Assays:
[1] = tested on: Wiga rats; test: Reserpine interaction test in rats; assay type: in vivo, rat; conditions: Rattus norvegicus, po; Time 60; reserpine 10 mg/kg SC; Wiga rats; read-out: ED50, reversal of reserpine-induced ptosis
Description: 4) Reserpine Interaction Test in Rats
It was investigated to what extent the mydriatic action of test compounds was sufficient to counteract the miosis induced by the monoamines-depleting agent reserpine (10 mg/kg; SC) in Wiga rats.
The effects are illustrated in FIG. 3. […] The reference mGlu2 NAMs RO-4995819 (40 mg/kg, p.o.), RO-4491533 (40 mg/kg, p.o.; 10 mg/kg, s.c.) and [CAS 579473-69-1]

[2] = tested on: rats; test: Reversal of the effect of the mGluR2 PAM JNJ-42153605 on scopolamine-induced hyperlocomotion; assay type: in vivo; conditions: Rattus norvegicus, 1 h, Route PO, test compound 60 min before recording, criterion total distance >1500 cm
Description: 2) Reversal of the Effect of the mGluR2 PAM JNJ-42153605 on Scopolamine-Induced Hyperlocomotion Apparatus
Motor activity was measured in microprocessor-based motor activity arenas (closed gray PVC cylinders with a height of 39 cm and a diameter of 31 cm). Each arena was placed on an infrared LED (8×8 LEDs) lit box (white PVC squared box; 40×40 cm^2; height 12.5 cm. An infrared-sensitive tube camera and a white light source were mounted to the ceiling above the observation chamber to track the animal. The total distance traveled (cm) was recorded and analyzed using the Noldus Ethovision XT Video Tracking System (Version 7.0.418; Noldus, Wageningen, The Netherlands). The intensity of the light within the activity cages (measured in the centre at the level of the floor) ranged between 4 and 8 LUX.
The rats were pretreated with test compound or vehicle at 60 min before the start of the activity recordings and placed into individual cages. The rats were challenged with JNJ-42153605 (3-(cyclopropylmethyl)-7-(4-phenylpiperidin-1-yl)-8-(trifluoromethyl)[1,2,4]triazolo[4,3-a]pyridine; WO2010/130424; Cid et al. J. Med. Chem. 2012, 55, 8770-8789) (20 mg/kg, i.v.) 30 min before the start of the activity recording combined with scopolamine (0.16 mg/kg, i.v.) just before the start of the activity measurements Immediately after the injection of scopolamine, the rats were placed into the activity monitors and total distance travelled over the first 30 min was measured.
Animals receiving the combination of JNJ-42153605 and scopolamine (n=433) almost always travelled a distance of less than 1500 cm (<1500 cm) (only 2.5% of the control rats travelled a distance of more than 1500 cm (>1500 cm)). On the other hand, animals challenged with scopolamine alone (n=215) always travelled a total distance of more than 1500 cm (>1500 cm) and almost always (in 95.8% of the rats) a distance of more than 4400 cm (>4400 cm). […] For reversal of the inhibitory effect of JNJ-42153605 on the scopolamine-induced hyperlocomotion, two all-or-none criteria were adopted: (1) reversal: total distance >1500 cm; (2) normalization: total distance >4400 cm.

[3] = tested on: Male Wiga Wistar rats; test: Reversal of LY-404039-induced decrease of palpebral opening in apomorphine-challenged rats; assay type: in vivo; conditions: Rattus norvegicus, Route PO; reversal of LY-404039-induced decrease of palpebral opening (cumulative score >26) in apomorphine challenged rats
Description: 6) Reversal of LY-404039-Induced Decrease of Palpebral Opening in Apomorphine-Challenged Rats.
Male Wiga Wistar rats (Crl:WI; Charles River Germany; 220±40 g) were housed under standard laboratory conditions (21±2° C.; 50-65% relative humidity; light-dark cycle set at 12 h; lights on at 6.00 h) and fasted overnight prior to the start of the experiments (tap water remained available ad libitum). During the test period, they were housed in individual cages. The local Ethical Committee approved all studies in compliance with the Declaration of Helsinki. Palpebral opening was scored every 5 min over the first hour after injection of apomorphine (1.0 mg/kg, i.v.) in animals either pretreated or not pretreated with LY-404039 (2.5 mg/kg, s.c.) at 1 h prior to the apomorphine injection. The animals were also pretreated with test compound or solvent at a predefined interval before apomorphine challenge. The score system was: (5) exophthalmos, (4) wide open, (3) open for three-quarters, (2) half open, (1) open for one-quarter, (0) closed. The scores for palpebral opening were cumulated over the 60-min observation period. A cumulative palpebral opening score >26 was selected for drug-induced reversal of the LY-404039-induced decrease of palpebral opening (occurrence in 3.2% of control animals pretreated with LY-404039 (n=154) versus in 99.5% of control rats not pretreated with LY-404039 (n=6335)).
In animals receiving apomorphine alone the median palpebral opening is 43 whereas in animals receiving apomorphine and LY-404039, the median palpebral opening is 17.

[4] = target: T1, human mGlu2 receptor (Homo sapiens, UniProt Q14416); test: [35S]GTPγS binding assay (mGluR2 negative allosteric modulation); assay type: biochemical; conditions: for IC50: membranes from CHO cells transfected with human mGlu2 receptor, glutamate 60 μM, pIC50 = −log IC50 (M), read-out: GTPγS - hmGluR2 anGT pIC50 (converted); for Emax: relative maximal effect: maximal % inhibition relative to the control glutamate response, read-out: GTPγS - hmGluR2 anGT Emax
T1 construct: expressed in transfected cells; host or cells: CHO cells (membrane preparation)
Summary of the method: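 Negative allosteric modulation read as [35S]GTPγS (0.1 nM) incorporation over 30 min at 30 °C, expressed as % of the response to an EC80-equivalent glutamate concentration. Assay used 7 μg human mGlu2 CHO membrane protein in HEPES pH 7.4 buffer with NaCl, MgCl2, GDP and saponin; bound label collected by filtration.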

[5] = tested on: rat hippocampal brain slices; test: Reversal of mGluR2-agonism (LY-354740-depressed fEPSP) in hippocampal brain slices; assay type: cell-based
Excerpt: 7) Reversal of mGluR2-Agonism in Hippocampal Brain Slices Introduction
Electrophysiology recordings of field excitatory postsynaptic potentials (fEPSPs) in acute hippocampal brain slices represent a model for testing synaptic transmission and plasticity. The effect of Co. No. 1 on synaptic transmission and plasticity in dentate gyms synapses was investigated using this model.
Recordings of fEPSPs were made from hippocampal brain slices using a multi-electrode array (MEA) biochip, and 3-dimensional-(3D) tip electrodes, according to a standard protocol. These recordings were used to monitor glutamate-mediated synaptic transmission (FIG. 4).

T1 sequence (Q14416 19-872): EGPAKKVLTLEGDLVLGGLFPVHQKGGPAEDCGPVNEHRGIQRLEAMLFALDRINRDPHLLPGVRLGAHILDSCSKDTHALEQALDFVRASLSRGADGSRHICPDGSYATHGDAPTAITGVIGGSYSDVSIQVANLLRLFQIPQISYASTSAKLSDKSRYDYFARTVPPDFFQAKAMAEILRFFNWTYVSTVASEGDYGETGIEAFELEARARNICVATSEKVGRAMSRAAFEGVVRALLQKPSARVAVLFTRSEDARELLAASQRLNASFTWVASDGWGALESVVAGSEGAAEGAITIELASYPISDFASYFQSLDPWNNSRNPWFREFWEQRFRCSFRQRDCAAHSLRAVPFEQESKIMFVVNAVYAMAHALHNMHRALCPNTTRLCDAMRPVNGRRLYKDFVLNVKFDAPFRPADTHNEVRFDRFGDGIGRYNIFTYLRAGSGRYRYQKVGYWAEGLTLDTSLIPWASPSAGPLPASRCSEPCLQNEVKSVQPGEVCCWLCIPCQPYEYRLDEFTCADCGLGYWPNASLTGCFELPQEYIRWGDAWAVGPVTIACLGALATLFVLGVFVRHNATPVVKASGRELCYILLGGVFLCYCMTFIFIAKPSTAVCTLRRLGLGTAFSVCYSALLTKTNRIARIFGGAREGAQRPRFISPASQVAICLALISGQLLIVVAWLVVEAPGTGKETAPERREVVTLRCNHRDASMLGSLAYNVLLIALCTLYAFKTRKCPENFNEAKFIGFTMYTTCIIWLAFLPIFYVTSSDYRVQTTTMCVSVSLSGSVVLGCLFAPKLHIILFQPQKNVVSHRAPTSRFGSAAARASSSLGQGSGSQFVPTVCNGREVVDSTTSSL

| Compound | IC50 [4] [M] | Emax [4] [%] | melting point [°C] | ED50 [1] [mg/kg] | ED50 [2] [mg/kg] | ED50 [3] [mg/kg] | paired-pulse ratio (PPR) ([5]; 1 μM LY-354740) | depression of fEPSP ([5]; 1 μM, within 15 min of application, dentate gyrus) [%] |
| --- | --- | --- | --- | --- | --- | --- | --- | --- |
| C[C@H]1CN(c2ccc(C(F)(F)F)cc2)C(=O)c2c(-c3ccncc3)cnn21 [compound 2, (7S)-7-Methyl-3-pyridin-4-yl-5-[4-(trifluoromethyl)phenyl]-6,7-dihydropyrazolo [1,5-a]pyrazin-4(5H)-one] | – | – | – | 0.32 | 1.26 | 0.5 | – | – |
| CCOc1cc(N2CCn3ncc(-c4ccnc(C)c4)c3C2=O)ccc1C(F)(F)F [compound 33] | 5.75e-07 | 99 | – | 0.5 | – | > 2.5 | – | – |
| Cc1cc(-c2cnn3c2C(=O)N(c2ccc(C(F)(F)F)c(C)c2)C[C@@H]3C)ccn1 [compound 5] | – | – | – | – | ≥ 2.5 | > 10 | – | – |
| N[C@@]1(C(=O)O)CC[C@H]2[C@H](C(=O)O)[C@H]21 [LY-354740, reference compound] | – | – | – | – | – | – | increase of the paired-pulse ratio | 50 |
| CCOc1cc(N2C[C@@H](C)n3ncc(-c4ccnc(C)c4)c3C2=O)ccc1C(F)(F)F [compound 31] | 4.37e-07 | 107 | – | 0.79 | – | ≥ 10 | – | – |
| COc1cc(-c2cnn3c2C(=O)N(c2ccc(C(F)(F)F)cc2)C[C@@H]3C)ccn1 [compound 45, (7S)-3-(2-Methoxy-4-pyridyl)-7-methyl-5-[4-(trifluoromethyl)phenyl]-6,7-dihydropyrazolo[1,5-a]pyrazin-4-one] | – | – | – | – | 1.26 | 0.79 | – | – |
| CCOc1cc(N2C[C@H](C)n3ncc(-c4ccnc(C)c4)c3C2=O)ccc1C(F)(F)F [compound 8] | 5.89e-09 | 105 | – | – | 5 | 5 | – | – |

Continued, in another order:

| IC50 [4] [M] | Emax [4] [%] | melting point [°C] | Compound | ED50 [1] [mg/kg] | ED50 [2] [mg/kg] | ED50 [3] [mg/kg] | paired-pulse ratio (PPR) ([5]; 1 μM LY-354740) | depression of fEPSP ([5]; 1 μM, within 15 min of application, dentate gyrus) [%] |
| --- | --- | --- | --- | --- | --- | --- | --- | --- |
| 6.31e-09 | 105 | 124.6 | CCc1cc(-c2cnn3c2C(=O)N(c2ccc(C(F)(F)F)cc2)C[C@@H]3C)ccn1 [compound 46, (7S)-3-(2-Ethyl-4-pyridyl)-7-methyl-5-[4-(trifluoromethyl)phenyl]-6,7-dihydropyrazolo[1,5-a]pyrazin-4-one] | – | ≥ 2.5 | 0.32 | – | – |
| 5.75e-09 | 106 | – | CNc1cc(-c2cnn3c2C(=O)N(c2ccc(C(F)(F)F)cc2)C[C@@H]3C)ccn1 [compound 147, (7S)-7-Methyl-3-[2-(methylamino)-4-pyridyl]-5-[4-(trifluoromethyl)phenyl]-6,7-dihydropyrazolo[1,5-a]pyrazin-4-one] | – | 0.5 | 1.26 | – | – |
| 6.17e-09 | 105 | > 300 | CCNc1cc(-c2cnn3c2C(=O)N(c2ccc(C(F)(F)F)cc2)C[C@@H]3C)ccn1 [compound 44, (7S)-3-[2-(Ethylamino)-4-pyridyl]-7-methyl-5-[4-(trifluoromethyl)phenyl]-6,7-dihydropyrazolo[1,5-a]pyrazin-4-one] | – | ≥ 2.5 | 0.5 | – | – |
| 5.13e-07 | 104 | 231.5 | Cc1cc(-c2cnn3c2C(=O)N(c2ccc(C(F)(F)F)cc2)C[C@@H]3C)cc[n+]1[O-] [compound 140, (7S)-7-Methyl-3-(2-methyl-1-oxido-pyridin-1-ium-4-yl)-5-[4-(trifluoromethyl)phenyl]-6,7-dihydropyrazolo[1,5-a]pyrazin-4-one] | – | – | 1.99 | – | – |
| 2.63e-08 | 103 | – | Cc1cc(-c2cnn3c2C(=O)N(c2ccc(Cl)cc2)C[C@@H]3C)ccn1 [compound 15] | – | 1.26 | 11.2 | – | – |
